The text below walks through data of patent publication US20140212478A1, “METHOD FOR PREVENTING AND/OR TREATING PERIODONTAL DISEASE” (priority 2008, published 2014).

Entries after “also recorded” stand apart in the source; their conditions may differ.

The test system of this test is dental root-periodontal tissue of excised first molar (lower jaw). Briefly: Effect on dental root-periodontal tissue formation: honokiol-impregnated agarose bead embedded into dental pulp of excised mouse first molar, graft culture under kidney capsule of host mice. Type of test: in vivo, C57BL/6 mice. The text has this: Dulbecco' phosphate buffered saline (hereinbelow, it is some times referred to as “D-PBS”) was purchased from Dainippon Pharmaceuticals Inc. Affi-Gel agarose beads (Affigel heparin Cat. No.: 15306173) were purchased from Bio-Rad Laboratories, Inc. Five days age of C57BL/6 mice were purchased from Sankyo Labo Service Corporation. As host mice, 10 to 15 weeks age of C57BL/6 mice (female) were purchased from Sankyo Labo Service Corporation, and used two per group. Since it was know that a kidney and an anterior chamber of eye hardly have immune response among organs in adult mice, it was not necessary to especially use nude mice in graft culture.
Honokiol-impregnated agarose beads were prepared as follows. Honokiol was diluted to the concentration of 10 μM by using D-PBS. The agarose beads were washed with D-PBS.
After washing, four agarose beads were placed in the 1.5 mL tube and 100 μL of the honokiol solution was added into it. Then, the tube was incubated at room temperature for 45 minutes to impregnated honokiol into the agarose beads. As mentioned above, absorptive beads including heparin honokiol impregnation (hereinbelow, it is sometimes referred to as “honokiol-impregnated agarose beads”) were prepared.
Alternatively, another four agarose beads were placed in the 1.5 mL tube and 100 μL of D-PBS was added into it to prepare D-PBS-impregnated agarose beads were prepared, and they were used as negative control.
Five days age of […] mice, where their dental root-periodontal tissue was just before formed, were anesthetized and sacrificed by decapitation. After excised lower jaw of them, the first molars in the lower jaw were excised with dental follicles. One of the honokiol-impregnated agarose beads prepared in the (5-1) was embedded into the dental pulp of the excised teeth, the first molar in the lower jaw.
As the negative control, one of the D-PBS-impregnated agarose beads prepared was embedded into the dental pulp of another excised teeth, the first molar in the lower jaw.
The excised teeth under which the honokiol-impregnated agarose bead was embedded, and that under which the D-PBS impregnated agarose bead was embedded, were respectively grafted under capsule of kidney of the host mice. The host mice were bred under the condition of 12 hours lighting, at room temperature, 25° C., free taking feed and water for three weeks.
After three weeks from grafting of the excised tooth, the host mice were sacrificed by dislocation of cervical vertebrae to excise the kidney to recover the cultured excised tooth (grafted tooth).
Formation of dental root-periodontal tissue (extension), coat of the dental root, and bone of the grafted tooth, which was recovered, were observed under stereoscopic microscope, and then subjected to tomography by using micro CT. […]

For the substance honokiol, the “extension of dental root (dental root-periodontal tissue formation)” value (agarose bead impregnated with 10 μM honokiol in D-PBS, embedded into dental pulp, three weeks graft culture under kidney capsule, stereoscopic microscope and micro CT, compared to D-PBS negative control) is listed as “prominent extension of dental root; also recorded: excellent promotion effect for dental root-periodontal tissue formation (extension)”. Under “agarose bead impregnated with 10 μM honokiol, embedded into dental pulp, three weeks graft culture under kidney capsule, all graft samples with dental root extension”, the “bone formation around the newly formed dental root” value was “bone formation around the newly formed dental root were also observed”. The “periodontal ligament-like structure between the dental root and the bone formed” value (agarose bead impregnated with 10 μM honokiol, embedded into dental pulp, three weeks graft culture, soft X-ray / micro CT section) was “structure similar to periodontal ligamentous band was observed”. Further, the “promotion effect for surrounding tissue (periodontal ligament and alveolar bone), overall conclusion” value (pharmaceutical preparation comprising honokiol as the active ingredient, conclusion from graft culture results) is “promotion effect for surrounding tissue such as the periodontal ligament and alveolar bone”.
